Measured values from US6410585B1, “Inhibitors of protein tyrosine phosphatase” (priority 1997, dated 2002).
Where “and” joins values, the source holds several entries; their conditions need not be identical. Identical values can stand only once. Like-named read-outs stand apart in the source and are kept apart here.

Target: T1, rat PTP1 (Rattus norvegicus, UniProt P20417)
T1 construct: a C-terminal truncation of rat PTP1 (amino acid residues 1-322); GST (N, cleaved yes); made in house; host or cells: E. coli strain TG-1 (pGEX-2T)
T1 sequence (P20417 1-322): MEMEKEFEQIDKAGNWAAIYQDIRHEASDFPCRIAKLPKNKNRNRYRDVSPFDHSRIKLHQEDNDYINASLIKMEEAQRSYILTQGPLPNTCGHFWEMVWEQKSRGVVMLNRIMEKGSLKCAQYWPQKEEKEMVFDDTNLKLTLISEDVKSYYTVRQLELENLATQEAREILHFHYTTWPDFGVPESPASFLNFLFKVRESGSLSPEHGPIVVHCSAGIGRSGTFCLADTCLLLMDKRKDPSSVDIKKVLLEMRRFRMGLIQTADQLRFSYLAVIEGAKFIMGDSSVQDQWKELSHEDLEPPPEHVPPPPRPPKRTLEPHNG
Assay: PTP1 assay, pNPP hydrolysis (rate of change in A405)
Format: biochemical
Excerpt: PTP1 Assays: A construct, which consisted of a C-terminal truncation of rat PTP1 (amino acid residues 1-322) (cloned from a rat brain library) with an N-terminal glutathione S-transferase (GST) tag and an adjacent thrombin cleavage site, was inserted into vector plasmid pGEX-2T and transformed into E. coli strain TG-1 under the control of a lac promoter (K. L. Guan and J. E. Dixon (1991) Eukaryotic proteins expressed in Escherichia coli: an improved thrombin cleavage and purification procedure of fusion proteins with glutathione S-transferase. Analyt. Biochem. 192: 262-267). The GST-fusion protein was purified on a glutathione agarose affinity column, the GST tag was cleaved with thrombin, and the active enzyme was recovered for use in an assay to identify PTP inhibitors.
PTP1 activity is measured using either p-nitrophenol phosphate (pNPP) or a triphosphopeptide (that matches residues 1142 through 1153 of the β-subunit and the insulin receptor) as substrate in a 96-well microtiter plate format. An assay pH of 7.2 is used for standard assays (measured 405=9800 at pH 7.2).
Standard assays are conducted at room temperature in a total volume of 0.2 ml that contains Hepes buffer (50 mM, pH 7.2), NaCl (50 mM), EDTA (1 mM), DTT (1 mM), bovine serum albumin (1 mg/ml), pNPP (1 mM) and PTP1 (35 ng/ml). Compounds (2 μl of 10 mM solutions) are pipetted into wells of microtiter plates followed by 198 μl of premixed reaction mix (with PTP1 and pNPP added immediately before use). The rate of change in A405 is recorded for 60 min. Two wells on each plate contain DMSO controls and two wells contain sodium orthovanadate (1 mM) which inhibits PTP1-catalyzed hydrolysis of pNPP completely. Data are expressed as percent inhibition relative to the average of the DMSO controls measured on the same microtiter plate.

[1] = Conc 1 uM, pNPP hydrolysis, Table 1, read-out: PTP1 Inhib % Inhib
[2] = Conc 10 uM, pNPP hydrolysis, Table 1, read-out: PTP1 Inhib % Inhib
[3] = Conc 100 uM, pNPP hydrolysis, Table 1, read-out: PTP1 Inhib % Inhib
[4] = Conc 1 uM, pNPP hydrolysis, Table 2, read-out: PTP1 Inhib PTP1N. % Inhib
[5] = Conc 10 uM, pNPP hydrolysis, Table 2, read-out: PTP1 Inhib PTP1N. % Inhib
[6] = Conc 100 uM, pNPP hydrolysis, Table 2, read-out: PTP1 Inhib PTP1N. % Inhib
[7] = inhibition of pNPP-hydrolysis, compound concentration 1 μM, read-out: % Inhibition
[8] = inhibition of pNPP-hydrolysis, compound concentration 10 μM, read-out: % Inhibition
[9] = inhibition of pNPP-hydrolysis, compound concentration 100 μM, read-out: % Inhibition

Row | inhibition at 1 µM [1] [%] | inhibition at 10 µM [2] [%] | inhibition at 100 µM [3] [%] | Structure (SMILES) | also measured
1 | 3 | 6 | 33 | CCCCCNC(=O)[C@H](Cc1ccc(C=C(C(=O)O)C(=O)O)cc1)NC(=O)CCC(=O)O | 
2 |  |  |  | CCCCCNC(=O)C(Cc1ccc(OC(COO)COO)cc1)NC(=O)C(Cc1ccc(OC)cc1)NC(=O)CCC(=O)O (stereo not drawn) | inhibition at 1 µM [4]: 32%; inhibition at 10 µM [5]: 83%; inhibition at 100 µM [6]: 98%
3 | 4 | 15 | 66 | O=C(O)CCC(=O)NC(Cc1ccc(OC(COO)COO)cc1)C(=O)NCc1ccc(C(F)(F)F)cc1 (stereo not drawn) | 
4 | 16 | 62 | 94 | CCCCCNC(=O)C(Cc1ccc(OC(C(=O)O)C(=O)O)cc1)NC(=O)C(CC(=O)O)NC(=O)OC(C)(C)C (stereo not drawn) | 
5 | 0 | 7 | 46 | CCOC(CNC(=O)[C@H](Cc1ccc(OC(C(=O)O)C(=O)O)cc1)NC(=O)CCC(=O)O)OCC | 
6 |  |  |  | CC(C)(C)OC(=O)N[C@@H](Cc1ccccc1)C(=O)N[C@@H](Cc1ccc(OCC(=O)O)c(C(=O)O)c1)C(=O)NCc1cccnc1 [Example 157-14, 5-{(2S)-2-({(2S)-2-[(tert-Butoxycarbonyl)amino]-3-phenylpropanoyl}amino)-3-oxo-3-[(3-pyridinylmethyl)amino]propyl}-2-(carboxymethoxy)benzoic Acid] | inhibition at 1 µM [7]: 20%; inhibition at 10 µM [8]: 67%; inhibition at 100 µM [9]: 94%
7 | 4 | 9 | 39 | CCCCCNC(=O)C(Cc1ccc(OC(COO)COO)cc1)NC(=O)CCC(=O)OCc1ccccc1 (stereo not drawn) | 
8 | 6 | 18 | 63 | CCCCCNC(=O)C(Cc1ccc(OC(COO)COO)cc1)NC(=O)NCCCCCC(=O)O (stereo not drawn) | 
9 |  |  |  | O=C(O)COc1ccc(C[C@H](NS(=O)(=O)/C=C/c2ccccc2)C(=O)NCCCCc2ccc(Cl)cc2)cc1C(=O)O [Example 156-7, 2-(carboxymethoxy)-5-[(2S)-3-{[4-(4-chlorophenyl)butyl]amino}-3-oxo-2-({[(E)-2-phenylethenyl]sulfonyl}amino)propyl]benzoic acid] | inhibition at 1 µM [7]: 18%; inhibition at 10 µM [8]: 69%; inhibition at 100 µM [9]: 95%
10 | 3 | 13 | 62 | CCCCCNC(=O)[C@H](Cc1ccc(OC(C(=O)O)C(=O)O)cc1)NC(=O)C1CCCCC1C(=O)O (stereo partly drawn) | 
11 | 27 | 75 | 96 | CCCCCNC(=O)[C@H](Cc1ccc(OC(C(=O)O)C(=O)O)cc1)NC(=O)C(CC(=O)O)NC(=O)CCC(=O)O (stereo partly drawn) | 
12 |  |  |  | CCCCCNC(=O)C(Cc1ccc(OC(COO)COO)cc1)NC(=O)C(Cc1ccc(OCc2c(Cl)cccc2Cl)cc1)NC(=O)CCC(=O)O (stereo not drawn) | inhibition at 1 µM [4]: 11%; inhibition at 10 µM [5]: 70%; inhibition at 100 µM [6]: 98%
13 |  |  |  | CCCCCNC(=O)C(Cc1ccc(OC(COO)COO)cc1)NC(=O)NCC(=O)NCC(=O)O (stereo not drawn) | inhibition at 1 µM [4]: 12%; inhibition at 10 µM [5]: 56%; inhibition at 100 µM [6]: 93%
14 |  |  |  | CCCCCNC(=O)C(Cc1ccc(OC(COO)COO)cc1)NC(=O)C(Cc1ccc(OC)cc1)NC(=O)OC(C)(C)C (stereo not drawn) | inhibition at 1 µM [4]: 8%; inhibition at 10 µM [5]: 36%; inhibition at 100 µM [6]: 90%
15 |  |  |  | CC(C)(C)OC(=O)N[C@@H](Cc1ccccc1)C(=O)N[C@H](Cc1ccc(OCC(=O)O)c(C(=O)O)c1)C(=O)NCCCN1CCCC1=O [Example 157-12, 5-((2R)-2-({(2S)-2-[(tert-Butoxycarbonyl)amino]-3-phenylpropanoyl}amino)-3-oxo-3-{[3-(2-oxo-1-pyrrolidinyl)propyl]amino}propyl)-2-(carboxymethoxy)benzoic Acid] | inhibition at 1 µM [7]: 27%; inhibition at 10 µM [8]: 76%; inhibition at 100 µM [9]: 95%
16 | 10 | 51 | 90 | CCCCCNC(=O)[C@H](Cc1ccc(OC(C(=O)O)C(=O)O)cc1)NC(=O)C(CC(=O)O)NC(=O)OCc1ccccc1 (stereo partly drawn) | 
17 | 4 | 3 | 51 | CCCCCCCCCCNC(=O)C(Cc1ccc(OC(COO)COO)cc1)NC(=O)CCC(=O)O (stereo not drawn) | 

Row | inhibition at 1 µM [1] [%] | inhibition at 10 µM [2] [%] | inhibition at 100 µM [3] [%] | Structure (SMILES) | also measured
18 |  |  |  | O=C(O)COc1ccc(C[C@H](NC(=O)c2ccc(Cl)cc2)C(=O)NCCCCc2ccccc2)cc1C(=O)O [Example 154-9, 2-(carboxymethoxy)-5-{(2S)-2-[(4-chlorobenzoyl)amino]-3-oxo-3-[(4-phenylbutyl)amino]propyl}benzoic acid] | inhibition at 1 µM [7]: 37%; inhibition at 10 µM [8]: 85%; inhibition at 100 µM [9]: 97%
19 |  |  |  | CCCCCNC(=O)C(Cc1ccc(OC(COO)COO)cc1)NC(=O)CCC(=O)O (stereo not drawn) [drawing 81] | PTP1 Inhib % Inhib (Conc 1 uM, pNPP hydrolysis, Table 1): 1%; PTP1 Inhib % Inhib (Conc 10 uM, pNPP hydrolysis, Table 1): 25%; PTP1 Inhib % Inhib (Conc 100 uM, pNPP hydrolysis, Table 1): 81% and 76%
20 | 0 | 3 | 45 | O=C(O)CCC(=O)N[C@@H](Cc1ccc(OC(C(=O)O)C(=O)O)cc1)C(=O)NCCC(c1ccccc1)c1ccccc1 | 
21 |  |  |  | O=C(O)COc1ccc(C[C@H](NC(=O)c2ccoc2)C(=O)NCCCCc2ccccc2)cc1C(=O)O [Example 154-15, 2-(carboxymethoxy)-5-{(2S)-2-(3-furoylamino)-3-oxo-3-[(4-phenylbutyl)amino]propyl}benzoic acid] | inhibition at 1 µM [7]: 80%; inhibition at 10 µM [8]: 31%; inhibition at 100 µM [9]: 97%
22 |  |  |  | CCCCCNC(=O)C(Cc1ccc(OC(COO)COO)cc1)NC(=O)C(Cc1ccc(OC(C)(C)C)cc1)NC(=O)CCC(=O)O (stereo not drawn) | inhibition at 1 µM [4]: 37%; inhibition at 10 µM [5]: 83%; inhibition at 100 µM [6]: 97%
23 | 2 | 20 | 72 | CCCCCNC(=O)[C@H](Cc1ccc(OC(C(=O)O)C(=O)O)cc1)NC(=O)CC1(CC(=O)O)CCCC1 | 
24 | 1 | 13 | 57 | O=C(O)CCC(=O)NC(Cc1ccc(OC(COO)COO)cc1)C(=O)NCCOc1ccccc1 (stereo not drawn) | 
25 |  |  |  | O=C(O)COc1ccc(C[C@H](NS(=O)(=O)c2ccc(F)cc2F)C(=O)NCCCCc2ccc(Cl)cc2)cc1C(=O)O [Example 156-1, 2-(carboxymethoxy)-5-((2S)-3-{[4-(4-chlorophenyl)butyl]amino}-2-{[(2,4-difluorophenyl)sulfonyl]amino}-3-oxopropyl)benzoic acid] | inhibition at 1 µM [7]: 18%; inhibition at 10 µM [8]: 69%; inhibition at 100 µM [9]: 95%
26 | 5 | 35 | 90 | CCCCCNC(=O)C(Cc1ccc(OC(COO)COO)cc1)NC(=O)N(CC(=O)O)Cc1ccc(OCc2ccccc2)cc1 (stereo not drawn) | 
27 | 1 | 20 | 72 | CCCCCNC(=O)[C@H](Cc1ccc(OC(C(=O)O)C(=O)O)cc1)NC(=O)[C@@H]1CCCC[C@H]1C(=O)O | 
28 | 8 | 34 | 81 | CCCCCNC(=O)C(Cc1ccc(OC(COO)COO)cc1)NC(=O)Nc1ccc(C(=O)O)cc1 (stereo not drawn) | 
29 | 5 | 29 | 79 | CCCCCNC(=O)[C@H](Cc1ccc(OC(C(=O)O)C(=O)O)cc1)NC(=O)CCc1ccc(CC(C(=O)O)C(=O)O)cc1 | 
30 | 3 | 25 | 75 | CCCCCNC(=O)C(Cc1ccc(OC(COO)COO)cc1)NC(=O)N(CC(=O)O)Cc1ccccc1 (stereo not drawn) | 
31 |  |  |  | CCCCCNC(=O)C(C)(Cc1ccc(OC(C(=O)O)C(=O)O)cc1)NC(=O)CCC(=O)O (stereo not drawn) | inhibition at 1 µM [4]: 3%; inhibition at 10 µM [5]: 6%; inhibition at 100 µM [6]: 34%
32 |  |  |  | CC(C)CC(CO)NC(=O)C(Cc1ccc(OC(COO)COO)cc1)NC(=O)CCC(=O)O (stereo not drawn) | inhibition at 1 µM [4]: 3%; inhibition at 10 µM [5]: 15%; inhibition at 100 µM [6]: 57%
33 |  |  |  | CCCCCNC(=O)C(Cc1ccc(OC(COO)COO)cc1)NC(=O)C(Cc1ccc(OCc2c(Cl)cccc2Cl)cc1)NC(=O)OC(C)(C)C (stereo not drawn) | inhibition at 1 µM [4]: 3%; inhibition at 10 µM [5]: 12%; inhibition at 100 µM [6]: 85%
